The source of these data is PMC5736782, “The Differential Absorption of a Series of P-Glycoprotein Substrates in Isolated Perfused Lungs from Mdr1a/1b Genetic Knockout Mice can be Attributed to Distinct Physico-Chemical Properties: an Insight into Predicting Transporter-Mediated, Pulmonary Specific Disposition” (Pharmaceutical Research, 2017).

The structures appear in SMILES notation. Like-named read-outs stand apart in the source and are kept apart here.

Data set [1] deals with P-glycoprotein (Mdr1a/Mdr1b) in isolated perfused mouse lung. Kind of data set: Isolated perfused mouse lung (IPML) airway-to-perfusate absorption, Mdr1a/1b (+/+) vs (−/−). The procedure: The atria and the lower half of the heart were cut to allow the free flow of perfusate. The lungs were removed and suspended vertically in a custom water-jacketed glass thorax (Radleys, Essex, UK) maintained at 37°C.
Following dosing of compound into the IPML airways serial samples (250 μL) were collected for bioanalysis from the 10 mL recirculating perfusate reservoir. Each sample collected from the reservoir was replaced with an equal volume of fresh warmed, oxygenated perfusate. Upon termination of the experiment the dose solutions, apparatus washings and perfusate samples were collected for mass balance calculations enabling determination of the actual total dose delivered to the lungs.
Radioactive compounds were directly analysed by liquid scintillation counting. Volumes of 50 μL perfusate samples were mixed with 3 mL of Scintisafe 3 Liquid Scintillation Fluid (Fisher, UK) and transferred to vials for scintillation counting using a TriCarb 2900TR (Packard Bioscience, USA).
After accounting for the mass of compound removed at each sample point, plots of the cumulative ‘%deposited dose absorbed’ versus ‘time’ were generated and subject to nonlinear regression analysis according to a first-order absorption one-compartment accumulating model (Eq. 1) to generate estimates for the extent (F) and rate (Ka) of absorption from the IPML airways to the recirculating perfusate.
The data was also subject to standard non-compartmental analysis, specifically Area Under Curve (AUC0–30 min) of ‘%deposited dose absorbed’ versus ‘time’ (units: %Dose.min) and reflecting for the exclusively accumulating perfusate ‘compartment’ the exposure arising from the IPML absorption process alone.

Another data set concerns the target T1, mouse Bcrp (Mus musculus, UniProt Q7TMS5).
T1 construct: purchased Corning (Gentest), Germany
T1 sequence (Q7TMS5 1-657): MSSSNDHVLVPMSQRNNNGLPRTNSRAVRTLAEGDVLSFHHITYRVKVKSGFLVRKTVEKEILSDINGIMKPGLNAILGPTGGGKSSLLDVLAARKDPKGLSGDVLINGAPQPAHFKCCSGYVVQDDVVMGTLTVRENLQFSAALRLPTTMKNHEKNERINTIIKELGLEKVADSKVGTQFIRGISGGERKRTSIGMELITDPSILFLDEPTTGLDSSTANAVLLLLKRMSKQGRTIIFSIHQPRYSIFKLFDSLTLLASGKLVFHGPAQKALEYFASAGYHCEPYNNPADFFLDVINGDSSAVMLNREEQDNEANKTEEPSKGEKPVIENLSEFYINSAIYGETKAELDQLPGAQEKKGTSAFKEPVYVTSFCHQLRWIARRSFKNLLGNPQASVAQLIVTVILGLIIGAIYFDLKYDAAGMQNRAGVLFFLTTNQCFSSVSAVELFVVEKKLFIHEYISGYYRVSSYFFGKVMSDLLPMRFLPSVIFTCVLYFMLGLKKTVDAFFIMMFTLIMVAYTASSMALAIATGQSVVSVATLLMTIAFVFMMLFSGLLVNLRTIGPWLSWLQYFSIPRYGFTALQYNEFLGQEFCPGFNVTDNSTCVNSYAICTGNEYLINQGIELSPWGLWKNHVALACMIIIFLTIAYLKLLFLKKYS
Kind of data set: Gentest ABC transporter membrane ATPase assay. The data set is classed as biochemical. Particulars: ATPase; 0 indicates no enzyme turnover.

Data set [2] can be described thus: Immobilised artificial membrane (IAM) chromatography. The data set is classed as physicochemical. Particulars: extrapolated to 100% water; mean of four experiments. The procedure: IAM chromatography provided an experimental measure of substrate membrane affinity and phospholipid interaction. The IAM column (Regis Technologies Inc., Hichrom, Reading, UK; IAM.PC.DD2 10 cm x 4.6 mm ID column) was run under isocratic eluting conditions with the retention of all compounds determined under three mobile phase conditions: 10%, 20% and 30% acetonitrile in water, and from which the theoretical retention time in 100% water was calculated by linear regression. LogK^IAM values were calculated according to Eq. 2:2 LogK^IAM=LogTr−T0/T0
where Tr and T0 are respectively the retention times of the substrate in 100% water and of the unretained compound, i.e. eluting within the solvent front of 75 s in all experiments.

The nature of data set [3]: Multi-lamellar liposome vesicle (MLV) partitioning. Particulars: (C0−CS)/C0, 1 μg/mL, 4 h, 37°C, PBS pH 7.4. In kind it is physicochemical. The procedure: MLVs were formed as previously described ([20]). Briefly, solutions of 8 mg phosphatidylcholine and 2 mg phosphatidylglycerol in 10 mL chloroform were completely dried to a lipid film (rotation under vacuum).
These preparations were then incubated at 37°C for 4 h under shaking conditions to allow equilibration of compound between the lipid and aqueous fractions. The MLVs were then pelleted and 100 μL of supernatant removed for analysis by radiometric or LC-MS/MS methods as described above. Partitioning into the MLVs was determined according to Eq. 3:3 MLVpartitioning=C0−CS/C0
where C0 is the initial compound concentration (1 μg/mL) and CS is the compound concentration present in the aqueous supernatant at the end of 4 h incubation.

Another data set addresses human MDR1 (Homo sapiens, UniProt P08183). Put plainly: Gentest ABC transporter membrane ATPase assay. Particulars: ATPase, 0–300 μM, 30 min, 37°C.
The target of another data set is human MDR1 (P-gp) (Homo sapiens, UniProt P08183). Put plainly: Gentest ABC transporter membrane ATPase assay. The settings on record: human.
Chain of human MDR1 (P-gp) (P08183 whole entry): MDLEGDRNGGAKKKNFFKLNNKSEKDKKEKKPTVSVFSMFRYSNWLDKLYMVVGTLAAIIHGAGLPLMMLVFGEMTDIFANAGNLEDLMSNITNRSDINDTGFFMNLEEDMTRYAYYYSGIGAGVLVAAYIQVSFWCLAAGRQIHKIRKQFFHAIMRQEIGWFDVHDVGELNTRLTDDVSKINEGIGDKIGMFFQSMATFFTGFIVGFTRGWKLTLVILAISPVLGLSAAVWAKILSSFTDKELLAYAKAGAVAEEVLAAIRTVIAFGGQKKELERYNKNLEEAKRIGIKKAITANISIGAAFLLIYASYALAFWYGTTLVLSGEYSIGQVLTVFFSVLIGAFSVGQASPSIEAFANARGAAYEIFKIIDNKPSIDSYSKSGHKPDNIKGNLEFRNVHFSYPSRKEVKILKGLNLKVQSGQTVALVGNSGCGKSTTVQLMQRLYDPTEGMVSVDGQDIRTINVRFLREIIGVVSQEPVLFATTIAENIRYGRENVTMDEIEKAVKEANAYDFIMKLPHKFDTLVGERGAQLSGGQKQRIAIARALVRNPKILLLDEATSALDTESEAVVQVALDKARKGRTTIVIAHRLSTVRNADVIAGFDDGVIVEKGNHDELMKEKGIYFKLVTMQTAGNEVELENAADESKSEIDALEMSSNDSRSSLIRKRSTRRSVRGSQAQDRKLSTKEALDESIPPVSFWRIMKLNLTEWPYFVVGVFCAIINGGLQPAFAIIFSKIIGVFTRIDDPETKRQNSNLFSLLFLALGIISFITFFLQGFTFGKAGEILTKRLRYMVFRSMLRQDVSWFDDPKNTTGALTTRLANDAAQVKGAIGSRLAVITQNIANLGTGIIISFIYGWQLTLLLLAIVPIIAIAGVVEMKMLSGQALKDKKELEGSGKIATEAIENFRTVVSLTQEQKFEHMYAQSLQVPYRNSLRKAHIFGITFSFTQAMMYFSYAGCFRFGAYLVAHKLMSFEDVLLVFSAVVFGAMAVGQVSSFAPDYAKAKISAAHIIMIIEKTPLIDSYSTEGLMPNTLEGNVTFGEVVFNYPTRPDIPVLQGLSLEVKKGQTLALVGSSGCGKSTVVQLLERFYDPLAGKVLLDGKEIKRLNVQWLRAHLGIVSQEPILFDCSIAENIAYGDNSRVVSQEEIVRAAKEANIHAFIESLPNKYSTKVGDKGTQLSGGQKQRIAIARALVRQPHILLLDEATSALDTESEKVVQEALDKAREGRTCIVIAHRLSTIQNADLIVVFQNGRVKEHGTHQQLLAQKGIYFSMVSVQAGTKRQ
The next data set has as its target mouse Mdr1a (Mus musculus, UniProt P21447). Kind of data set: Gentest ABC transporter membrane ATPase assay. Particulars: 0–300 μM, 30 min, 37°C.
Another data set addresses mouse Mdr1b (Mus musculus, UniProt P06795). Kind of data set: Gentest ABC transporter membrane ATPase assay. Particulars: 0–300 μM, 30 min, 37°C.
Data set [4] has as its system P-gp (Mdr1a/1b) in mouse intestinal segments. Put plainly: Ussing chamber intestinal permeability, ileal segments Mdr1a/1b (+/+) vs (−/−). The settings on record: for Mdr1a/1b (−/−) Permeability coefficient: P-gp knockout intestinal segments; for Mdr1a/1b (−/−) Permeability coefficient / Mdr1a/1b (+/+) Permeability coefficient: mucosal to serosal, 50 μM, 180 min; for Mdr1a/1b (+/+) Permeability coefficient: wild-type intestinal segments.
Description: (§1) The bathing fluid for both mucosal and serosal surfaces (3 mL volume in each chamber) comprised oxygenated Krebs-Henseleit buffer maintained at 37°C (heating block) under stirred conditions (gas flow manifold). […] Any intestinal segments presenting an initial TEER of lower than 80 Ω.cm^2 were discarded prior to the experiment, likewise any segments whose TEER decreased by more than 10% over the course of the experiment were excluded.
(§2) Thereafter permeability coefficients were determined according to Eq. 4:4 ρ=dM/dt/A^∗C0

In a further data set the test system is P-gp. Details: method as in PMID 23670704. Particulars: IPRL and IPML models; cited from earlier work.
The test system of data set [5] is P-gp (Mdr1a/1b) in mouse intestinal segments.
Description: as §1, §2

Chain of mouse Mdr1b (P06795 whole entry): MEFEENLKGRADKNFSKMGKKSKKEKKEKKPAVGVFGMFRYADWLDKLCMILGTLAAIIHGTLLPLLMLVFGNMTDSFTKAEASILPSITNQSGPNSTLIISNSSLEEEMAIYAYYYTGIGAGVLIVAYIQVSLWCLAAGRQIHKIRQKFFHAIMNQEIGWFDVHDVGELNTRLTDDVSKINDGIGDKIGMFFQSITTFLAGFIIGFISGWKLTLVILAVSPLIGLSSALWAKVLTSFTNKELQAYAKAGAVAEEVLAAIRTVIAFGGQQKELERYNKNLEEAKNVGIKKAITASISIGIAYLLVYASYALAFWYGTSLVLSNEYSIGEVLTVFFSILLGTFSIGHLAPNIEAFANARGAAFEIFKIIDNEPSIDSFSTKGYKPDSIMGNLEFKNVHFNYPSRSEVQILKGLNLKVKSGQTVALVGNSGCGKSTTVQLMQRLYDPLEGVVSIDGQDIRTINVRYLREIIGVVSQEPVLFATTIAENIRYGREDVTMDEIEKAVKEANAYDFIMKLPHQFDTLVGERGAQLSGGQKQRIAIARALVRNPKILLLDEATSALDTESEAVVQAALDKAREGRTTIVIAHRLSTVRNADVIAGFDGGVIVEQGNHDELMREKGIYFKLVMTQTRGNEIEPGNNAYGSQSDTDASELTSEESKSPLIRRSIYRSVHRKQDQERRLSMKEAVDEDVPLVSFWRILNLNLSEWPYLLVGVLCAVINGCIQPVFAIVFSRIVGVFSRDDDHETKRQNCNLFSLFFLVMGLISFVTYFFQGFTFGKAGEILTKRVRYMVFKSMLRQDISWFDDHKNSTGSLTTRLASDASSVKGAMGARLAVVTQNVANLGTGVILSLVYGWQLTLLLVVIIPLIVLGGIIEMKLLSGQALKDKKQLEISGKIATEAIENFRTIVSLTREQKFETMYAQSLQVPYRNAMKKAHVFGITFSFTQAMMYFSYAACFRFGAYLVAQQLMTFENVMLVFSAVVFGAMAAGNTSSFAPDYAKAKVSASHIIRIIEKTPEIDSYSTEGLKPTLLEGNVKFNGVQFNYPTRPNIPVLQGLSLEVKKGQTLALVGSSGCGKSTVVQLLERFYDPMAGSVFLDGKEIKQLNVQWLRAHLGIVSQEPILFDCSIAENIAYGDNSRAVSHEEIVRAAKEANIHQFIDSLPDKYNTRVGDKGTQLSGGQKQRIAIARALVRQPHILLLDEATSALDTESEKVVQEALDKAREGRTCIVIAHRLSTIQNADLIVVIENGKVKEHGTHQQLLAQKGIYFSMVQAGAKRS
Chain of mouse Mdr1a (P21447 whole entry): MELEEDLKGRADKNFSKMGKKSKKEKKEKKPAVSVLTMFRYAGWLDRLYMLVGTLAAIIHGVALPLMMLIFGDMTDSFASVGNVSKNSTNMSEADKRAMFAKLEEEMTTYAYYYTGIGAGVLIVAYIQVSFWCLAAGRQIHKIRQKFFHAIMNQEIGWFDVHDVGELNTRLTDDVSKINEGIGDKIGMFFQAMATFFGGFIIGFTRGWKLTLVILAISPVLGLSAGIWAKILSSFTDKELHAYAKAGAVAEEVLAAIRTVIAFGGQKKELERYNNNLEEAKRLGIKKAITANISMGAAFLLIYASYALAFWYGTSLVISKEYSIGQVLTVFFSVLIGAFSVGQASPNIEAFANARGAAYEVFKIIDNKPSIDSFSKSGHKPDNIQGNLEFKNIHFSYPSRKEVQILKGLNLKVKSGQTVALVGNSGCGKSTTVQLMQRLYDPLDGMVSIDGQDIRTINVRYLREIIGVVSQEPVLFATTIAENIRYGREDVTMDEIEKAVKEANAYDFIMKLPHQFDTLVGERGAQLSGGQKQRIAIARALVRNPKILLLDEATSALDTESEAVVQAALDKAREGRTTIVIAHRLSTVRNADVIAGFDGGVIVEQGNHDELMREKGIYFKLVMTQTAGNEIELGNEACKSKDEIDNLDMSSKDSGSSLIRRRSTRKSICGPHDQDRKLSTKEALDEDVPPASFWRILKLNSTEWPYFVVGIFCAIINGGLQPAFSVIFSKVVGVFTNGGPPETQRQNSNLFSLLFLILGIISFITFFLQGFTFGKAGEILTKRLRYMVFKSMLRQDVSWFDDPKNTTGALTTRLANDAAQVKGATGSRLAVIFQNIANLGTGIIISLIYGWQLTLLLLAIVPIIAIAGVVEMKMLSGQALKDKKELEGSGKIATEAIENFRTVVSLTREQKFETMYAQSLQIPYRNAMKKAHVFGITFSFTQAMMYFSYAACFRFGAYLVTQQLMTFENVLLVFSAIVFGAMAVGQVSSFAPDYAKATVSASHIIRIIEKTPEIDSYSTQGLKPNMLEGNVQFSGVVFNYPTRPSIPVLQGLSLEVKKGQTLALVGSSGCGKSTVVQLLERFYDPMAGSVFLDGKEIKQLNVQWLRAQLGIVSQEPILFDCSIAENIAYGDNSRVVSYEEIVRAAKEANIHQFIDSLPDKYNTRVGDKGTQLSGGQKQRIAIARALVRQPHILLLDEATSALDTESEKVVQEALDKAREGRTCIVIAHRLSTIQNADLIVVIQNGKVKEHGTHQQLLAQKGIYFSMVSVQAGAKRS
Chain of human MDR1 (P08183 whole entry): as the sequence (P08183 whole entry) above
Excerpt for mouse Bcrp: (§3) The Gentest ATPase assay (Corning, Germany) was used to investigate the binding kinetics of the panel of P-gp substrates against membranes constituted to display human MDR1, mouse Mdr1a, mouse Mdr1b and mouse Bcrp. The assays measure the accumulation of inorganic phosphate (absorbance at 800 nm) produced in the breakdown of ATP to ADP. […] The assays were used in accordance with the manufacturer’s protocol to calculate (GraphPad Prism) the Michaelis-Menten parameters Km and VMAX. For the assay test compounds were serially diluted to produce an assay concentration range of 0–300 μM with the kinetics of ATP turnover examined over 30 min at 37°C.
Excerpt for mouse Mdr1b: as §3

Usually Vmax stands for the rate approached at saturating substrate. By Km is commonly meant the concentration of substrate that gives half-maximal velocity. Take `COc1cc2c(c(OC)c1OC)-c1ccc(OC)c(=O)cc1[C@@H](NC(C)=O)CC2` [Colchicine, colchicine]: the “Ratio AUCs (-/-) : (+/+)” value in [1] (IPML KO:WT) is on record as 1.43. For the same molecule, the “Group (impact of Mdr1a/1b knockout on IPML absorption)” value in data set [1] (categorisation from IPML outcomes) is listed as “GROUP B”. The “Mdr1a/1b (-/-) AUC(0-30)” value in data set [1] (knockout IPML, % deposited dose absorbed vs time in perfusate) amounted to 571 %.min. The “Mdr1a/1b (-/-) % Deposited Dose absorbed” value in data set [1] (knockout IPML, within 30 minutes) is listed as 25.4%. Besides, in data set [1] (male, mouse), the “Mdr1a/1b (+/+) ‘F’ estimate by model fit [95% CI)” value was 16.6 [14.7 to 18.4] and the “Mdr1a/1b (-/-) ‘F’ estimate by model fit [95% CI)” value was 23.3 [20.9 to 25.7]. The “Mdr1a/1b (+/+) AUC(0-30)” value in data set [1] (wild-type IPML, % deposited dose absorbed vs time in perfusate) was 398 %.min. For the same molecule, in [1] (wild-type IPML, within 30 minutes), the “Mdr1a/1b (+/+) % Deposited Dose absorbed” value is 17.7%. Also, the Vmax on mouse Bcrp was 0 µM/min. The “LogK^IAM” value in data set [2] was 1.30. In [3], the “MLV Partitioning” value is 0.86. In addition, the Vmax at human MDR1 came to 16.6 µM/min. At human MDR1 (P-gp), the Michaelis-Menten constant (Km) at 30 min came out at 15.4 µM. In addition, at mouse Mdr1a, the Km stood at 9.1 µM and the Vmax turned out to be 22.7 µM/min. Further, on mouse Mdr1b, the Michaelis constant (Km) worked out at 7.7 µM and the Vmax amounted to 28.4 µM/min. In [4], the “Mdr1a/1b (−/−) Permeability coefficient” value is on record as 14.95 ± 3.18 cm/s (x10^−6) and the “Mdr1a/1b (+/+) Permeability coefficient” value is 6.93 ± 3.15 cm/s (x10^−6). The “Ratio Permeability (−/−): (+/+)” value in data set [4] (intestinal Papp KO:WT) turned out to be 2.16.
Turning to `CC(C)(C)NC(=O)[C@@H]1C[C@@H]2CCCC[C@@H]2CN1C[C@@H](O)[C@H](Cc1ccccc1)NC(=O)[C@H](CC(N)=O)NC(=O)c1ccc2ccccc2n1` [Saquinavir, saquinavir], in [1] (male, mouse, 50 μM), the “Mdr1a/1b (+/+) ‘F’ estimate by model fit [95% CI)” value was 25.5 [11.4 to 39.6] and the “Mdr1a/1b (-/-) ‘F’ estimate by model fit [95% CI)” value was 29.1 [19.5 to 38.6]. Besides, in [1] (male, mouse, 30 min, 50 μM), the “Mdr1a/1b (+/+) % Deposited Dose absorbed” value is listed as 20.0% and the “Mdr1a/1b (-/-) % Deposited Dose absorbed” value worked out at 20.0%. Moreover, the Vmax at mouse Bcrp is 0 µM/min. For the same molecule, the “LogK^IAM” value in [2] is on record as 1.24. Further, the “MLV Partitioning” value in [3] was found to be 0.45. For the same molecule, in the data set with P-gp, the “effect of P-gp inhibition (GF120918) upon pulmonary absorption” value is “unaffected”. For the same molecule, the Vmax on human MDR1 worked out at 41.3 µM/min. Besides, on human MDR1 (P-gp) (membranes displaying human MDR1 (Gentest ATPase assay)), the Km at 30 min is 24.9 µM. Also, at mouse Mdr1a, the Km was 31.7 µM and the Vmax is 39.5 µM/min. On mouse Mdr1b, the Km turned out to be 32 µM and the maximal velocity (Vmax) was found to be 47.1 µM/min. Further, in data set [4], the “Mdr1a/1b (−/−) Permeability coefficient” value is on record as 15.73 ± 3.52 cm/s (x10^−6) and the “Mdr1a/1b (+/+) Permeability coefficient” value is recorded as 1.56 ± 0.69 cm/s (x10^−6).
As to `CC(C)(C)NCC(O)c1ccc(O)c(CO)c1` (centres unmarked) [Salbutamol, salbutamol], the “Group (impact of Mdr1a/1b knockout on IPML absorption)” value in [1] was “GROUP B”. The “Mdr1a/1b (+/+) ‘F’ estimate by model fit [95% CI)” value in data set [1] (male, mouse, 50 μM) is 24.9 [21.8 to 28.1]. Besides, in data set [1] (male, mouse, 50 μM), the “Mdr1a/1b (-/-) ‘F’ estimate by model fit [95% CI)” value was 30.2 [28.2 to 32.2]. Besides, the Vmax at mouse Bcrp worked out at 0 µM/min; on human MDR1, 45.6 µM/min; on mouse Mdr1a, 52.3 µM/min; on mouse Mdr1b, 49.1 µM/min. Further, the “LogK^IAM” value in data set [2] is given as 1.47. In addition, the “MLV Partitioning” value in data set [3] was 0.88. For the same molecule, the “Mdr1a/1b (−/−) Permeability coefficient” value in data set [5] is on record as 14.90 ± 2.16 cm/s (x10^−6). The “Mdr1a/1b (+/+) Permeability coefficient” value in [4] is 10.6 ± 2.30 cm/s (x10^−6).
